Source: ChEMBL document CHEMBL1201862, “PubChem BioAssay data set” (2004)
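Assay format: 96-well plates, 48-hour exposure. GI50 is the concentration that inhibits growth by half.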 The source made the active and inactive calls. Cut-off read from the data, not from the text of the source: active = GI50 up to about 1.1 µM and inactive = higher.

Legend:
Assay in all cases: DTP human tumour cell line panel, 48 h
SN12C = test system: SN12C
SNB-19 = test system: SNB-19
UACC-62 = test system: UACC-62
786-0 = test system: 786-0
SK-MEL-5 = test system: SK-MEL-5
HCC 2998 = test system: HCC 2998
KM12 = test system: KM12
A549 = test system: A549
DMS-114 = test system: DMS-114
M14 = test system: M14
SK-OV-3 = test system: SK-OV-3
MOLT-4 = test system: MOLT-4
RXF 393 = test system: RXF 393
SNB-75 = test system: SNB-75
OVCAR-3 = test system: OVCAR-3
IGROV-1 = test system: IGROV-1
SW-620 = test system: SW-620
OVCAR-5 = test system: OVCAR-5
UO-31 = test system: UO-31
OVCAR-4 = test system: OVCAR-4
K562 = test system: K562
HCT-15 = test system: HCT-15
HCT-116 = test system: HCT-116
SNB-78 = test system: SNB-78
HOP-92 = test system: HOP-92
ACHN = test system: ACHN
Malme-3M = test system: Malme-3M
SK-MEL-2 = test system: SK-MEL-2
TK-10 = test system: TK-10
LOX IMVI = test system: LOX IMVI
HL-60 = test system: HL-60
NCI-H23 = test system: NCI-H23
CAKI-1 = test system: CAKI-1
SF-268 = test system: SF-268
U-251 = test system: U-251
SR = test system: SR
SK-MEL-28 = test system: SK-MEL-28
NCI-H226 = test system: NCI-H226
KM-20L2 = test system: KM-20L2
LXFL 529 = test system: LXFL 529
EKVX = test system: EKVX
A498 = test system: A498
RPMI-8226 = test system: RPMI-8226
HT-29 = test system: HT-29
UACC-257 = test system: UACC-257
NCI-H460 = test system: NCI-H460
COLO 205 = test system: COLO 205
M19-MEL = test system: M19-MEL
SF-295 = test system: SF-295
NCI-H522 = test system: NCI-H522
HOP-62 = test system: HOP-62
OVCAR-8 = test system: OVCAR-8
CCRF-CEM = test system: CCRF-CEM
SF-539 = test system: SF-539
Hs-578T = test system: Hs-578T
MDA-MB-231 = test system: MDA-MB-231
MCF7 = test system: MCF7
BT-549 = test system: BT-549
PC-3 = test system: PC-3
T47D = test system: T47D
DU-145 = test system: DU-145
NCI/ADR-RES = test system: NCI/ADR-RES
MDA-N = test system: MDA-N
MDA-MB-435 = test system: MDA-MB-435

N#CN1CCC2CC(=O)CCC2C1 (stereo not given)
GI50 (SN12C): > 100 µM (inactive) | GI50 (SNB-19): > 100 µM (inactive) | GI50 (UACC-62): > 100 µM (inactive) | GI50 (786-0): > 100 µM (inactive) | GI50 (SK-MEL-5): > 10 µM (inactive) | GI50 (HCC 2998): > 100 µM (inactive) | GI50 (KM12): > 100 µM (inactive) | GI50 (A549): > 100 µM (inactive) | GI50 (DMS-114): > 100 µM (inactive) | GI50 (M14): > 100 µM (inactive) | GI50 (SK-OV-3): > 100 µM (inactive) | GI50 (MOLT-4): > 100 µM (inactive) | GI50 (RXF 393): > 100 µM (inactive) | GI50 (SNB-75): > 100 µM (inactive) | GI50 (OVCAR-3): > 100 µM (inactive) | GI50 (IGROV-1): > 100 µM (inactive) | GI50 (SW-620): > 100 µM (inactive) | GI50 (OVCAR-5): > 100 µM (inactive) | GI50 (UO-31): > 100 µM (inactive) | GI50 (OVCAR-4): > 100 µM (inactive) | GI50 (K562): > 100 µM (inactive) | GI50 (HCT-15): > 100 µM | GI50 (HCT-116): > 100 µM (inactive) | GI50 (SNB-78): > 100 µM (inactive) | GI50 (HOP-92): > 100 µM (inactive) | GI50 (ACHN): > 100 µM (inactive) | GI50 (Malme-3M): > 100 µM (inactive) | GI50 (SK-MEL-2): > 100 µM (inactive) | GI50 (TK-10): > 100 µM (inactive) | GI50 (LOX IMVI): > 100 µM (inactive) | GI50 (HL-60): > 100 µM (inactive) | GI50 (NCI-H23): > 100 µM (inactive) | GI50 (CAKI-1): > 100 µM (inactive) | GI50 (SF-268): > 100 µM (inactive) | GI50 (U-251): > 100 µM (inactive) | GI50 (SR): > 100 µM (inactive) | GI50 (SK-MEL-28): > 100 µM (inactive) | GI50 (NCI-H226): > 100 µM (inactive) | GI50 (KM-20L2): > 100 µM (inactive)

CN/N=C(/Cc1occc(=O)c1O)C(=O)Nc1ccccc1C
GI50 (LXFL 529): > 100 µM (inactive) | GI50 (EKVX): > 100 µM (inactive) | GI50 (A498): > 100 µM (inactive) | GI50 (RPMI-8226): > 100 µM (inactive) | GI50 (SN12C): > 100 µM (inactive) | GI50 (SNB-19): > 100 µM (inactive) | GI50 (UACC-62): > 100 µM (inactive) | GI50 (786-0): > 100 µM (inactive) | GI50 (SK-MEL-5): > 100 µM (inactive) | GI50 (HCC 2998): > 100 µM (inactive) | GI50 (KM12): > 100 µM (inactive) | GI50 (A549): > 100 µM (inactive) | GI50 (DMS-114): > 100 µM (inactive) | GI50 (M14): > 100 µM (inactive) | GI50 (HT-29): > 100 µM (inactive) | GI50 (SK-OV-3): > 100 µM (inactive) | GI50 (UACC-257): > 100 µM (inactive) | GI50 (MOLT-4): > 100 µM (inactive) | GI50 (NCI-H460): > 100 µM (inactive) | GI50 (OVCAR-3): > 100 µM (inactive) | GI50 (COLO 205): > 100 µM (inactive) | GI50 (IGROV-1): > 100 µM (inactive) | GI50 (M19-MEL): > 100 µM (inactive) | GI50 (SW-620): > 100 µM (inactive) | GI50 (OVCAR-5): > 100 µM (inactive) | GI50 (UO-31): > 100 µM (inactive) | GI50 (OVCAR-4): > 100 µM (inactive) | GI50 (K562): > 100 µM (inactive) | GI50 (HCT-15): > 100 µM | GI50 (HCT-116): > 100 µM (inactive) | GI50 (SNB-78): > 100 µM (inactive) | GI50 (SF-295): > 100 µM (inactive) | GI50 (HOP-92): 20.4 µM (inactive) | GI50 (NCI-H522): > 100 µM (inactive) | GI50 (ACHN): > 100 µM (inactive) | GI50 (Malme-3M): > 100 µM (inactive) | GI50 (SK-MEL-2): > 100 µM (inactive) | GI50 (TK-10): > 100 µM (inactive) | GI50 (LOX IMVI): > 100 µM (inactive) | GI50 (HL-60): > 100 µM (inactive) | GI50 (NCI-H23): > 100 µM (inactive) | GI50 (CAKI-1): > 100 µM (inactive) | GI50 (SF-268): > 100 µM (inactive) | GI50 (HOP-62): > 100 µM (inactive) | GI50 (U-251): > 100 µM (inactive) | GI50 (OVCAR-8): > 100 µM (inactive) | GI50 (SR): > 100 µM (inactive) | GI50 (CCRF-CEM): > 100 µM (inactive) | GI50 (SK-MEL-28): > 100 µM (inactive) | GI50 (NCI-H226): > 100 µM (inactive) | GI50 (SF-539): > 100 µM (inactive) | GI50 (KM-20L2): > 100 µM (inactive)

Cc1cc(=O)oc2cc(OC(=O)Nc3ccccc3)ccc12
GI50 (EKVX): > 100 µM (inactive) | GI50 (Hs-578T): 64.4 µM (inactive) | GI50 (A498): 64.4 µM (inactive) | GI50 (RPMI-8226): 25.4 µM (inactive) | GI50 (SN12C): 74.6 µM (inactive) | GI50 (SNB-19): > 100 µM (inactive) | GI50 (UACC-62): 41.2 µM (inactive) | GI50 (786-0): > 100 µM (inactive) | GI50 (SK-MEL-5): 59 µM (inactive) | GI50 (HCC 2998): 84.3 µM (inactive) | GI50 (MDA-MB-231): > 100 µM (inactive) | GI50 (MCF7): 88.1 µM (inactive) | GI50 (KM12): 32.4 µM (inactive) | GI50 (A549): 62.1 µM (inactive) | GI50 (BT-549): 22.9 µM (inactive) | GI50 (M14): > 100 µM (inactive) | GI50 (HT-29): > 100 µM (inactive) | GI50 (SK-OV-3): 70.6 µM (inactive) | GI50 (PC-3): 48.8 µM (inactive) | GI50 (UACC-257): > 100 µM (inactive) | GI50 (T47D): 41.9 µM (inactive) | GI50 (MOLT-4): 40.8 µM (inactive) | GI50 (RXF 393): 92.7 µM (inactive) | GI50 (DU-145): 76.9 µM (inactive) | GI50 (SNB-75): > 100 µM (inactive) | GI50 (NCI-H460): 84.7 µM (inactive) | GI50 (OVCAR-3): 61 µM (inactive) | GI50 (COLO 205): 53.5 µM (inactive) | GI50 (IGROV-1): 69.8 µM (inactive) | GI50 (SW-620): 62.8 µM (inactive) | GI50 (OVCAR-5): > 100 µM (inactive) | GI50 (UO-31): 40.4 µM (inactive) | GI50 (OVCAR-4): > 100 µM (inactive) | GI50 (K562): 35.6 µM (inactive) | GI50 (HCT-15): 50.9 µM | GI50 (HCT-116): 47.8 µM (inactive) | GI50 (SF-295): > 100 µM (inactive) | GI50 (HOP-92): 29.3 µM (inactive) | GI50 (NCI-H522): 53.1 µM (inactive) | GI50 (ACHN): 74 µM (inactive) | GI50 (Malme-3M): > 100 µM (inactive) | GI50 (SK-MEL-2): > 100 µM (inactive) | GI50 (TK-10): > 100 µM (inactive) | GI50 (LOX IMVI): > 100 µM (inactive) | GI50 (HL-60): 20.6 µM (inactive) | GI50 (NCI-H23): 69.5 µM (inactive) | GI50 (CAKI-1): > 100 µM (inactive) | GI50 (NCI/ADR-RES): 63.2 µM (inactive) | GI50 (SF-268): > 100 µM (inactive) | GI50 (HOP-62): > 100 µM (inactive) | GI50 (MDA-N): > 100 µM (inactive) | GI50 (U-251): 86.3 µM (inactive) | GI50 (OVCAR-8): 53.3 µM (inactive) | GI50 (SR): 29.5 µM (inactive) | GI50 (MDA-MB-435): > 100 µM (inactive) | GI50 (CCRF-CEM): 27.2 µM (inactive) | GI50 (SK-MEL-28): > 100 µM (inactive) | GI50 (NCI-H226): 73.1 µM (inactive) | GI50 (SF-539): > 100 µM (inactive)
